This note sets out measurements from US8362267B2, “Benzophenone thiazole derivatives useful for inhibiting formation of microtubule and method for producing the same” (Chong Kun Dang Pharmaceutical Corp., priority 2008, dated 2013).

In data set [1] the test system is MKN45 (human gastric adenocarcinoma, #80103). The experiment in a line: In vivo antitumor activity, human xenograft, stomach cancer model MKN45. The method, then:
(§1) BALB/c male nude mice (4 weeks) available from Central Lab Animal Inc. were used for human xenograft experiments. Sterile food and potable water were freely provided to the mice in an isolated sterile cage and the temperature of the cage was maintained at 23±0.5° C.
(§2) A human cancer model, CX-1 (human colon adenocarcinoma), for xenograft experiment was obtained from the German Cancer Research Center (DKFZ), and HCT-15 (human colorectal adenocarcinoma, CCL-225) and A549 (human lung carcinoma, CCL-185) were obtained from ATCC (American Type Culture Collection, Rockville, Md., USA). Human tumor cells, MKN45 (human gastric adenocarcinoma, #80103) and calu-6 (human lung carcinoma, #30056) were obtained from KCLB (Korean Cell Line. Bank).
(§3) CX-1 was incubated in a 95% air incubator (37° C., 5% CO2) using a DMEM (Dulbecco's Modified Eagle's Medium, Gibco) supplemented with 10% heat-inactivated fetal bovine serum (Gibco) and 1% Antibiotics-Antimycotics (Gibco). Other cell lines were incubated in a 95% air incubator (37° C., 5% CO2) using an RPM1640 (Gibco BRL) medium supplemented with 10% heat-inactivated fetal bovine serum (Gibco) and 1% Antibiotics-Antimycotics (Gibco).
(§4) In vivo human xenograft experiments were performed in accordance with the following procedure. In vitro proliferated human-derived cancer cell lines (CX-1, HCT-15, A549, MKN45, calu-6) were subcutaneously injected into the abdominal region of BALB/c nude mice and were thus proliferated in vivo. After 20 to 25 days, the mice were sacrificed by cervical spine dislocation, solid cancer cells proliferated in the mice were sterilely separated and fresh cancer cells from which connective or necrotic tissues or skin were removed were collected. The fragments of tumor were transplanted to the BALB/c nude mice.
(§5) The mice in which cancer cells were proliferated to a predetermined size were collected on the 15th to 30th day after human-derived cancer models were transplanted into the BALB/c nude mice and then used for the tests. For each experimental group, the drug was injected at a dose of 0.1 mL per 10 g of mouse in accordance with a dose schedule, when tumor cells were grown to a size of 100 to 200 mm^3 after tumor transplantation.
(§6) After administration, antitumor activity was evaluated based upon an antitumor inhibition rate (IR %) of tumor growth, obtained by comparing a tumor volume measured on the final day with a tumor volume of a control group. As the reference drug, AC7700 (Sanofi-Aventis), which is currently undergoing phase III clinical trials, was used. Tumor size=(short diameter)^2×(long diameter)/2 I.R.(%)=[1−(average tumor size of drug-administered group)/(average tumor size of control group)]×100
On the technique in general: In xenograft studies the graft and the host belong to different species.

Data set [2] relates to calu-6 (human lung carcinoma, #30056). Briefly: In vivo antitumor activity, human xenograft, non-small cell lung cancer model calu-6. The procedure:
as §1, §2, §3, §4, §5, §6

Data set [3] concerns CX-1 (human colon adenocarcinoma). Briefly: In vivo antitumor activity, human xenograft, colorectal cancer model CX-1. On the set-up: species or system BALB/c nude mice. Particulars: for Body weight change (%) / Number of dead animals / IR (%): q4d x 4 (i.p.); for animal death / pharmaceutical effects as compared to the reference drug, AC7700 / weight loss: CX-1 xenograft model; for animal death / pharmaceutical effects as compared to the reference drug, AC7700: in words; for weight loss: as compared to the compound 516, in words. The method, then:
as §1, §4, §5, §6

The subject of data set [4] is A549 (human lung carcinoma, CCL-185). The experiment in a line: In vivo antitumor activity, human xenograft, lung cancer model A549. The procedure:
as §1, §2, §3, §4, §5, §6

Data set [5] relates to HCT-15 (human colorectal adenocarcinoma, CCL-225). Format: in vivo. The conditions noted are these: HCT-15 xenograft, q4d x 4 (i.p.). The method, then: as §1, §2, §3, §4, §5, §6
The nature of data set [6]: Measurement of solubility in water (HPLC). Format: physicochemical. Particulars: thermodynamic from solid; in distilled water, 25° C. The method, then: The compounds of the present invention were developed to reduce toxicity caused by deposition on organ due to low solubility of compound 516, as confirmed by animal tests. Considering this, solubility of the present compounds in water was thus measured.
The compound was dissolved in acetonitrile to a concentration of 1 mg/mL and the solution was diluted with a mobile phase to a concentration of 5, 12.5, 25, 50 or 100 μg/ml.
1. The compound was added to distilled water such that the concentration of each specimen was adjusted to 10 mg/mL, stirred in a thermostat stirrer (25° C., 200 rpm) for about 7 days, filtered and diluted with a mobile phase to an optimal concentration.
2. The compound was added to distilled water such that the concentration of each specimen was adjusted to 10 mg/mL, sonicated for 30 minutes, stirred for 5 minutes, filtered, sonicated for 30 minutes again and diluted with a mobile phase to an optimal concentration.
Column temperature: 25° C.
Column: Kromasil C8 (4.6×150 mm, 5 μm)
Mobile phase: 20 mM ammonium acetate, pH 5.0/ACN (60/40)

The mark [7] stands for this setting: MKN45 xenograft, 80 mg/kg, q4d x 4 (i.p.).
The mark [8] stands for this setting: calu-6 xenograft, 80 mg/kg, q4d x 4 (i.p.).
The mark [9] stands for this setting: Table 3, CX-1 xenograft, 100 mg/kg.
Where [10] appears, read: Table 4, CX-1 xenograft, 100 mg/kg.
Setting [11] is: A549 xenograft, 80 mg/kg, q4d x 4 (i.p.).
Setting [12] is: Table 3, CX-1 xenograft, 5 mg/kg.
The mark [13] stands for this setting: MKN45 xenograft, 5 mg/kg, q4d x 4 (i.p.).
The mark [14] stands for this setting: MKN45 xenograft, 7.5 mg/kg, q4d x 4 (i.p.).
Where [15] appears, read: MKN45 xenograft, 10 mg/kg, q4d x 4 (i.p.).
Setting [16] is: calu-6 xenograft, 5 mg/kg, q4d x 4 (i.p.).
The mark [17] stands for this setting: calu-6 xenograft, 7.5 mg/kg, q4d x 4 (i.p.).
Where [18] appears, read: calu-6 xenograft, 10 mg/kg, q4d x 4 (i.p.).
Setting [19] is: Table 4, CX-1 xenograft, 5 mg/kg.
Setting [20] is: Table 4, CX-1 xenograft, 10 mg/kg.
[21] abbreviates: A549 xenograft, 5 mg/kg, q4d x 4 (i.p.).
[22] abbreviates: A549 xenograft, 7.5 mg/kg, q4d x 4 (i.p.).
Setting [23] is: A549 xenograft, 10 mg/kg, q4d x 4 (i.p.).
Where [24] appears, read: Table 4, CX-1 xenograft, 20 mg/kg.

Converted amounts (≈) assume the structure as drawn. Read-outs that look alike come from different tables or passages of the source.

In the case of `COc1ccc(/C=C\c2cc(OC)c(OC)c(OC)c2)cc1NC(=O)[C@@H](N)CO` [AC7700, reference compound], the “Body weight change (%)” value is “+7.8%” in data set [1] (setting [7]); “+22.4%” in data set [2] (setting [8]); “+13.2%” in data set [3] (setting [9]); “+22.8%” in data set [3] (setting [10]); “+2.6%” in data set [4] (setting [11]); “+5.5%” in data set [5] (80 mg/kg). Further, the “IR (%)” value in data set [1] (setting [7]) is 55%; in data set [2] (setting [8]), 80%; in data set [3] (Table 3, CX-1 xenograft, 100 mg/kg, tumor volume on final day vs control), 48%; in data set [3] (setting [10]) it was 34%; in data set [4] (setting [11]) it was 64%; in data set [5] (80 mg/kg), 66%. Also, the “Number of dead animals” value in data set [1] (setting [7]) is given as 0/6; in data set [2] (setting [8]), 0/6; in data set [3] (setting [9]), 2/6; in data set [3] (setting [10]), 0/6; in data set [4] (setting [11]) it was 0/7; in data set [5] (80 mg/kg), 1/6.

Usually solubility stands for how much of the substance goes into solution per volume. Higher therefore signals much dissolved substance. As to `COc1cc(C(=O)c2ccc(-c3csc(N)n3)cc2-n2cncn2)cc(OC)c1OC` [Compound 516, {4-(2-aminothiazol-4-yl)-2-(1H-1,2,4-triazol-1-yl)phenyl}(3,4,5-trimethoxyphenyl)methanone, reference compound], in data set [3], the animal death entry is “two animals died” and the “pharmaceutical effects as compared to the reference drug, AC7700” value was “significantly superior pharmaceutical effects”. In data set [3] (setting [12]), the “Body weight change (%)” value is on record as “+15.2%” and the “Number of dead animals” value is recorded as 2/6. In addition, in data set [3] (Table 3, CX-1 xenograft, 5 mg/kg, tumor volume on final day vs control), the “IR (%)” value is listed as 36%. The molecule further showed a solubility in data set [6] of 0.5 mg/mL (≈ 1.14 mM).

With `COc1cc(C(=O)c2ccc(-c3csc(NC(=O)CN)n3)cc2-n2cncn2)cc(OC)c1OC` [Compound 615, N-(4-(3-(1H-1,2,4-triazol-1-yl)-4-(3,4,5-trimethoxybenzoyl)phenyl)thiazol-2-yl)-2-aminoacetamide], in data set [6], the solubility amounted to 23.3 mg/mL (≈ 47.1 mM).

As for `COc1cc(C(=O)c2ccc(-c3csc(NC(=O)[C@@H](N)C(C)C)n3)cc2-n2cncn2)cc(OC)c1OC` [Compound 624, (S)—N-(4-(3-(1H-1,2,4-triazol-1-yl)-4-(3,4,5-trimethoxybenzoyl)phenyl)thiazol-2-yl)-2-amino-3-methylbutanamide], the “pharmaceutical effects as compared with the reference drug” value in data set [1] (MKN45 xenograft model, in words) is on record as “significantly superior pharmaceutical effects”; in data set [2] (calu-6 xenograft model, in words), “significantly superior pharmaceutical effects”; in data set [4] (A549 xenograft model, in words) it was “significantly superior pharmaceutical effects”. Also, the “Body weight change (%)” value in data set [1] (setting [13]) is −11.8%; in data set [1] (setting [14]) it was “+2.9%”; in data set [1] (setting [15]) it was “+4.3%”; in data set [2] (setting [16]) it was “+26.2%”; in data set [2] (setting [17]), “+26.0%”; in data set [2] (setting [18]), “+20.6%”. Moreover, the “Body weight change (%)” value in data set [3] (setting [19]) is “+25.7%”; in data set [3] (setting [20]), “+14.7%”; in data set [4] (setting [21]), −1.7%; in data set [4] (setting [22]), “+1.7%”; in data set [4] (setting [23]), −1.2%; in data set [5] (5 mg/kg), “+1.8%”. Also, the entries for the “Body weight change (%)” value in data set [5] (7.5 mg/kg) and in data set [5] (10 mg/kg) were “+3.2%” and “+6.6%”, respectively. Besides, the “IR (%)” value came to 21% in data set [1] (setting [13]); 46% in data set [1] (setting [14]); 68% in data set [1] (setting [15]); 41% in data set [2] (setting [16]); 73% in data set [2] (setting [17]); 82% in data set [2] (setting [18]). The “IR (%)” value in data set [3] (setting [19]) is 28%; in data set [3] (setting [20]), 64%; in data set [4] (setting [21]) it was 39%; in data set [4] (setting [22]), 61%; in data set [4] (setting [23]) it was 71%; in data set [5] (5 mg/kg) it was 12%. For the same molecule, the “IR (%)” value is listed as 63% in data set [5] (7.5 mg/kg) and 69% in data set [5] (10 mg/kg). Also, in data set [3], the weight loss result is “no weight loss”. Moreover, the animal death result in data set [3] is recorded as “no animal death”. Moreover, the “pharmaceutical effects as compared to the reference drug, AC7700” value in data set [3] is listed as “significantly superior pharmaceutical effects”. This molecule gave a solubility in data set [6] of 14.9 mg/mL (≈ 27.8 mM).

For the molecule `COc1cc(C(=O)c2ccc(-c3csc(NC(=O)[C@@H](N)Cc4ccccc4)n3)cc2-n2cncn2)cc(OC)c1OC` [Compound 625], in data set [3], the weight loss result is “no weight loss”; the animal death result is “no animal death”; the “pharmaceutical effects as compared to the reference drug, AC7700” value is given as “significantly superior pharmaceutical effects”. In data set [3] (setting [19]), the “Body weight change (%)” value is given as “+28.9%” and the “IR (%)” value was 21%. In data set [3] (setting [20]), the “Body weight change (%)” value is “+24.5%” and the “IR (%)” value was 43%. Further, the solubility in data set [6] was found to be 11 mg/mL (≈ 18.8 mM).

Take `COc1cc(C(=O)c2ccc(-c3csc(NC(=O)CN(C)C)n3)cc2-n2cncn2)cc(OC)c1OC` [Compound 631, N-(4-(3-(1H-1,2,4-triazol-1-yl)-4-(3,4,5-trimethoxybenzoyl)phenyl)thiazol-2-yl)-2-(dimethylamino)acetamide]: in data set [3], the weight loss result is recorded as “no weight loss”; the animal death entry is reported as “no animal death”; the “pharmaceutical effects as compared to the reference drug, AC7700” value is “significantly superior pharmaceutical effects”. In addition, in data set [3] (setting [19]), the “Body weight change (%)” value is recorded as “+24.8%” and the “IR (%)” value is 23%. In data set [3] (setting [20]), the “Body weight change (%)” value is “+26.7%” and the “IR (%)” value is 20%. Moreover, in data set [3] (setting [24]), the “Body weight change (%)” value is on record as “+20.9%” and the “IR (%)” value is 37%.

Molecule `COc1cc(C(=O)c2ccc(-c3csc(NC(=O)[C@@H](N)CC(C)C)n3)cc2-n2cncn2)cc(OC)c1OC` [Compound 647, (S)—N-(4-(3-(1H-1,2,4-triazol-1-yl)-4-(3,4,5-trimethoxybenzoyl)phenyl)thiazol-2-yl)-2-amino-4-methylpentanamide] came in with a solubility in data set [6] of 12.1 mg/mL (≈ 22 mM).
